Test [1] concerns the target T1, FAAH (Mus musculus, UniProt O08914).
T1 sequence (O08914 1-579): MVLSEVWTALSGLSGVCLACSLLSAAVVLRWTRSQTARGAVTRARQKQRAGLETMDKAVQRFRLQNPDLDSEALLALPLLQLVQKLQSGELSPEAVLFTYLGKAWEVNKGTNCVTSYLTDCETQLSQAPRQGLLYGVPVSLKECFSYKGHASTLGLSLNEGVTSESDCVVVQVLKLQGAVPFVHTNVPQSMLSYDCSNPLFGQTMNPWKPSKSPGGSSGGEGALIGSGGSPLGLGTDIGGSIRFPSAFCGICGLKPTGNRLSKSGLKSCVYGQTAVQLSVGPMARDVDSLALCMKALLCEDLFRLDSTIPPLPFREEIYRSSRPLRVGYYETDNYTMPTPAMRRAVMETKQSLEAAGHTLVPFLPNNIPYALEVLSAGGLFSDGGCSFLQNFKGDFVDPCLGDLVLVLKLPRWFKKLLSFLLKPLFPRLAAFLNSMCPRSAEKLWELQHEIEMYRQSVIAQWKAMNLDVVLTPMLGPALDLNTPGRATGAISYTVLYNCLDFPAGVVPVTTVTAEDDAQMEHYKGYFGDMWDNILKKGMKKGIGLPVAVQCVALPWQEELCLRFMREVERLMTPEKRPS
Nature of the test: biochemical. To be noted: in vitro competitive ABPP.

Test [2] concerns the target T2, MAGL (Mus musculus, UniProt O35678).
T2 sequence (O35678 1-303): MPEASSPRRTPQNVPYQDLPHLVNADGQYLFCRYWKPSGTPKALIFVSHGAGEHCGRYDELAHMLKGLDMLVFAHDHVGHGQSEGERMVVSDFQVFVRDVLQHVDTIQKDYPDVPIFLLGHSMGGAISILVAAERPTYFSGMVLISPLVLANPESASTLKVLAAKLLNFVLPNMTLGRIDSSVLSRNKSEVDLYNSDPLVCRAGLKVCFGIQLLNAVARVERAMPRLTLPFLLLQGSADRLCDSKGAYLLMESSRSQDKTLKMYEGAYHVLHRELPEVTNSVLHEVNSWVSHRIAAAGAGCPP
Nature of the test: biochemical. The following applies: mouse; in vitro competitive ABPP; read-out: Mouse (IC50 value, nM) MAGL.

For test [3], the target named is T3, ABHD6 (Mus musculus, UniProt Q8R2Y0).
T3 sequence (Q8R2Y0 1-336): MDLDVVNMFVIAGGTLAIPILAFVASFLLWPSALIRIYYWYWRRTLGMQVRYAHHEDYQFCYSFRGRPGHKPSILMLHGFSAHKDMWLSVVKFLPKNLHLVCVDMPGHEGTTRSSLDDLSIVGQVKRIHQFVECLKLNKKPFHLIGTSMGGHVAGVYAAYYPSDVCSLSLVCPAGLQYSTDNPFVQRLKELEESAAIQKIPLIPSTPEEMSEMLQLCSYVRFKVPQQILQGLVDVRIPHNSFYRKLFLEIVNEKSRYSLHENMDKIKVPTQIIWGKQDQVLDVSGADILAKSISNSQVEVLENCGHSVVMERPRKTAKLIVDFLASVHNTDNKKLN
Nature of the test: biochemical. The following applies: in vitro competitive ABPP.

Test [4] deals with T3, ABHD6. Nature of the test: In vitro competitive activity-based protein profiling (Table 2, % inhibition at 1 μM). The following applies: read-out: % Inhibition at 1 μM ABHD6. Type of test: biochemical.
Test [5] has as its target T1, FAAH. The description is as above. It is filed as biochemical. To be noted: read-out: % Inhibition at 1 μM FAAH.
For test [6], the target named is T2, MAGL. Described as above. Type of test: biochemical. The following applies: read-out: % Inhibition at 1 μM MAGL. How it is done: After 30 min, FP—Rh (1.0 μL, 50 μM in DMSO) was added and the mixture was incubated for another 30 min at 37° C. Reactions were quenched with SDS loading buffer (50 μL-4×) and run on SDS-PAGE.
Cell lysates were diluted with mock proteomes for use in competitive ABPP experiments.

Usually IC50 stands for the point on the concentration scale where inhibition reaches its midpoint. One may read the inhibition as how much of the control response was suppressed. Take `O=C(OC(C(F)(F)F)C(F)(F)F)N1CC2CN(Cc3cccc(N4CCC5(CCOC5)C4)c3Cl)CC2C1` (stereo not drawn) [Example 48, 1,1,1,3,3,3-Hexafluoropropan-2-yl 5-[(2-chloro-3-[2-oxa-7-azaspiro[4.4]nonan-7-yl]phenyl)methyl]-octahydropyrrolo[3,4-c]pyrrole-2-carboxylate]: the values for the IC50 on FAAH [1], on MAGL [2] and at ABHD6 [3] were 1000 to 10000 nM, less than 100 nM and 1000 to 10000 nM, respectively. The results for the inhibition at 1 µM on ABHD6 [4], at FAAH [5] and on MAGL [6] were less than 25%, 25 to 75% and greater than 75%, respectively.

For `O=C(OC(C(F)(F)F)C(F)(F)F)N1CC2CN(Cc3ccc(C(F)F)cc3N3CCOCC3)CC2C1` (stereo not drawn) [Example 203, 1,1,1,3,3,3-hexafluoropropan-2-yl 5-(4-(difluoromethyl)-2-morpholinobenzyl)hexahydropyrrolo[3,4-c]pyrrole-2(1H)-carboxylate], the IC50 is 1000 to 10000 nM at FAAH [1], less than 100 nM on MAGL [2] and 1000 to 10000 nM on ABHD6 [3]. The inhibition at 1 µM is 25 to 75% on ABHD6 [4], less than 25% at FAAH [5] and greater than 75% on MAGL [6].

Take `O=C(OC(C(F)(F)F)C(F)(F)F)N1CC2CN(Cc3ccc(N4CCOCC4)cc3C(F)(F)F)CC2C1` (stereo not drawn) [Example 10, 1,1,1,3,3,3-Hexafluoropropan-2-yl 5-[[4-(morpholin-4-yl)-2-(trifluoromethyl)phenyl]methyl]-octahydropyrrolo[3,4-c]pyrrole-2-carboxylate]: the IC50 on FAAH [1] was 100 to 1000 nM; at MAGL [2] it was less than 100 nM; at ABHD6 [3], 1000 to 10000 nM. In addition, the figures for the inhibition at 1 µM at ABHD6 [4], at FAAH [5] and at MAGL [6] were less than 25%, 25 to 75% and greater than 75%, respectively.

Take `CCn1ncc(CN2CC3CN(C(=O)OC(C(F)(F)F)C(F)(F)F)CC3C2)c1C(=O)NCC1CCOCC1` (stereo not drawn) [Example 181, 1,1,1,3,3,3-hexafluoropropan-2-yl 5-((1-ethyl-5-(((tetrahydro-2H-pyran-4-yl)methyl)carbamoyl)-1H-pyrazol-4-yl)methyl)hexahydropyrrolo[3,4-c]pyrrole-2(1H)-carboxylate]: the IC50 at FAAH [1] was greater than 10000 nM; on MAGL [2], less than 100 nM; on ABHD6 [3], 100 to 1000 nM. The inhibition at 1 µM is 25 to 75% on ABHD6 [4], less than 25% at FAAH [5] and greater than 75% at MAGL [6].

As for `O=C(OC(C(F)(F)F)C(F)(F)F)N1CC2CN(Cc3c(N4CC5COCC5C4)cccc3C(F)(F)F)CC2C1` (stereo not drawn) [Example 209, 1,1,1,3,3,3-hexafluoropropan-2-yl 5-(2-(tetrahydro-1H-furo[3,4-c]pyrrol-5(3H)-yl)-6-(trifluoromethyl)benzyl)hexahydropyrrolo[3,4-c]pyrrole-2(1H)-carboxylate], the concentration for half-maximal inhibition (IC50) is greater than 10000 nM on FAAH [1], 100 to 1000 nM on MAGL [2] and 1000 to 10000 nM at ABHD6 [3]. Further, the inhibition at 1 µM is 25 to 75% on ABHD6 [4], less than 25% at FAAH [5] and greater than 75% at MAGL [6].

Turning to `O=C(OC(C(F)(F)F)C(F)(F)F)N1CC2CN(Cc3cccc(Cl)c3N3CCC(F)(F)CC3)CC2C1` (stereo not drawn) [Example 158, 1,1,1,3,3,3-hexafluoropropan-2-yl 5-[[3-chloro-2-(4,4-difluoropiperidin-1-yl)phenyl]methyl]-octahydropyrrolo[3,4-c]pyrrole-2-carboxylate], the IC50 on FAAH [1] was greater than 10000 nM; on MAGL [2] it was 100 to 1000 nM; on ABHD6 [3], 1000 to 10000 nM. Moreover, the inhibition at 1 µM was less than 25% on ABHD6 [4], less than 25% at FAAH [5] and greater than 75% at MAGL [6].

Take `Cn1nc(-c2cccc(F)c2)cc1CN1CC2CN(C(=O)OC(C(F)(F)F)C(F)(F)F)CC2C1` (stereo not drawn) [Example 195, 1,1,1,3,3,3-hexafluoropropan-2-yl 5-((3-(3-fluorophenyl)-1-methyl-1H-pyrazol-5-yl)methyl)hexahydropyrrolo[3,4-c]pyrrole-2(1H)-carboxylate]: the figures for the IC50 at FAAH [1], at MAGL [2] and at ABHD6 [3] were 1000 to 10000 nM, less than 100 nM and 100 to 1000 nM, respectively. Besides, the inhibition at 1 µM at ABHD6 [4] was 25 to 75%; on FAAH [5], less than 25%; at MAGL [6], greater than 75%.

As to `O=C(OC(C(F)(F)F)C(F)(F)F)N1CC2CN(Cc3ccc(F)cc3N3CCCC3)CC2C1` (stereo not drawn) [Example 15, 1,1,1,3,3,3-Hexafluoropropan-2-yl 5-[[4-fluoro-2-(pyrrolidin-1-yl)phenyl]methyl]-octahydropyrrolo[3,4-c]pyrrole-2-carboxylate], the results for the IC50 at FAAH [1], at MAGL [2] and on ABHD6 [3] were 1000 to 10000 nM, 100 to 1000 nM and 1000 to 10000 nM, respectively. In addition, the inhibition at 1 µM is less than 25% on ABHD6 [4], 25 to 75% at FAAH [5] and greater than 75% on MAGL [6].

Regarding `Cc1c(CN2CC3CN(C(=O)OC(C(F)(F)F)C(F)(F)F)CC3C2)cccc1N1CCN(C)CC1` (stereo not drawn) [Example 154, 1,1,1,3,3,3-hexafluoropropan-2-yl 5-[[2-methyl-3-(4-methylpiperazin-1-yl)phenyl]methyl]-octahydropyrrolo[3,4-c]pyrrole-2-carboxylate], the IC50 at FAAH [1] is greater than 10000 nM; at MAGL [2], 100 to 1000 nM; at ABHD6 [3], 1000 to 10000 nM. Further, the inhibition at 1 µM at ABHD6 [4] was less than 25%; at FAAH [5] it was less than 25%; at MAGL [6] it was greater than 75%.

Regarding `CCn1ncc(CN2CC3CN(C(=O)OC(C(F)(F)F)C(F)(F)F)CC3C2)c1C(=O)NCC1CC1` (stereo not drawn) [Example 179, 1,1,1,3,3,3-hexafluoropropan-2-yl 5-((5-((cyclopropylmethyl)carbamoyl)-1-ethyl-1H-pyrazol-4-yl)methyl)hexahydropyrrolo[3,4-c]pyrrole-2(1H)-carboxylate], the half-maximal inhibitory concentration (IC50) on FAAH [1] was greater than 10000 nM; on MAGL [2], less than 100 nM; on ABHD6 [3], 100 to 1000 nM. In addition, the inhibition at 1 µM on ABHD6 [4] was 25 to 75%; at FAAH [5], less than 25%; on MAGL [6] it was greater than 75%.

`CC1COCCN1c1cc(Cl)ccc1CN1CC2CN(C(=O)OC(C(F)(F)F)C(F)(F)F)CC2C1` (stereo not drawn) [Example 20, 1,1,1,3,3,3-Hexafluoropropan-2-yl 5-[[4-chloro-2-(3-methylmorpholin-4-yl)phenyl]methyl]-octahydropyrrolo[3,4-c]pyrrole-2-carboxylate]: the half-inhibitory concentration (IC50) at FAAH [1] was 1000 to 10000 nM; at MAGL [2], less than 100 nM; at ABHD6 [3], 1000 to 10000 nM. Also, the inhibition at 1 µM is less than 25% on ABHD6 [4], less than 25% at FAAH [5] and greater than 75% on MAGL [6].

For `CC(=O)N1CCC(n2nc(C)cc2CN2CC3CN(C(=O)OC(C(F)(F)F)C(F)(F)F)CC3C2)CC1` (stereo not drawn) [Example 60, 1,1,1,3,3,3-Hexafluoropropan-2-yl 5-[[1-(1-acetylpiperidin-4-yl)-3-methyl-1H-pyrazol-5-yl]methyl]-octahydropyrrolo[3,4-c]pyrrole-2-carboxylate], the IC50 was greater than 10000 nM on FAAH [1], 100 to 1000 nM on MAGL [2] and 1000 to 10000 nM at ABHD6 [3]. For the same compound, the figures for the inhibition at 1 µM at ABHD6 [4], on FAAH [5] and on MAGL [6] were less than 25%, less than 25% and greater than 75%, respectively.

In the case of `CC1COCCN1c1ccc(CN2CC3CN(C(=O)ON4C(=O)CCC4=O)CC3C2)c(Cl)c1` (stereo not drawn) [Example 102, 2,5-Dioxopyrrolidin-1-yl 5-[[2-chloro-4-(3-methylmorpholin-4-yl)phenyl]methyl]-octahydropyrrolo[3,4-c]pyrrole-2-carboxylate], the IC50 at FAAH [1] is 1000 to 10000 nM; at MAGL [2] it was 100 to 1000 nM; at ABHD6 [3], 1000 to 10000 nM. Besides, the results for the inhibition at 1 µM on ABHD6 [4], on FAAH [5] and on MAGL [6] were less than 25%, 25 to 75% and 25 to 75%, respectively.
